Results as given in PubChem BioAssay AID256 (DTP/NCI, 2004).
Where “and” joins values, the source holds several entries; their conditions need not be identical. Identical values can stand only once. Inconclusive results and toxic doses are left out. Rule for the calls: active = survival T/C of 150% or more; inactive = T/C below 125% in these data.

Test system: CD2F1 mice, L1210 leukemia ip, survival T/C
Assay: NCI In Vivo Anticancer Drug Screen. Data for tumor model L1210 Leukemia (intraperitoneal) in CD2F1 (CDF1) mice
Conditions: higher = longer survival
Summary of the method: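 Ratio T/C, where T is the treated-group value and C the vehicle-dosed control value, from mice implanted with a transplantable tumor.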

[1] = endpoint: mean survival time, dose: 100.0 mg/kg/injection, schedule: Q01DX009 (ip), vehicle: saline with Tween-80
[2] = endpoint: mean survival time, dose: 100.0 mg/kg/injection, schedule: Q04DX003 (ip), vehicle: saline with Tween-80
[3] = endpoint: mean survival time, dose: 200.0 mg/kg/injection, schedule: Q01DX009 (ip), vehicle: saline with Tween-80
[4] = endpoint: mean survival time, dose: 200.0 mg/kg/injection, schedule: Q04DX003 (ip), vehicle: saline with Tween-80
[5] = endpoint: mean survival time, dose: 400.0 mg/kg/injection, schedule: Q01DX009 (ip), vehicle: saline with Tween-80
[6] = endpoint: mean survival time, dose: 400.0 mg/kg/injection, schedule: Q04DX003 (ip), vehicle: saline with Tween-80
[7] = endpoint: mean survival time, dose: 50.0 mg/kg/injection, schedule: Q01DX009 (ip), vehicle: other
[8] = endpoint: mean survival time, dose: 100.0 mg/kg/injection, schedule: Q01DX009 (ip), vehicle: other

Measured: T/C

Cc1ccc(NC(=O)c2ccc(C(=O)Nc3ccc(C)cc3)cc2)cc1
inactive: [1] 98 % of control | [2] 87 % of control | [3] 88 % of control | [4] 97 % of control | [5] 93 % of control | [6] 86 % of control

C=C1C(O)C2(O)OCC34C(CC5C(C)=CC(=O)C(O)C5(C)C23)OC(=O)C(OC(=O)C/C=C/CCCCCCCC)C14 (centres undefined)
inactive: endpoint: median survival time, dose: 2.0 mg/kg/injection, schedule: Q01DX005 (ip), vehicle: saline + alcohol 113 % of control | endpoint: median survival time, dose: 4.0 mg/kg/injection, schedule: Q01DX005 (ip), vehicle: saline + alcohol 119 % of control | endpoint: median survival time, dose: 8.0 mg/kg/injection, schedule: Q01DX005 (ip), vehicle: saline + alcohol 119 % of control and 124 % of control

Cc1cc(=O)oc2cc(OC(=O)C(CCCCN)NC(=O)OCc3ccccc3)ccc12 (centres undefined)
inactive: endpoint: mean survival time, dose: 12.5 mg/kg/injection, schedule: Q01DX009 (ip), vehicle: other 107 % of control | endpoint: mean survival time, dose: 25.0 mg/kg/injection, schedule: Q01DX009 (ip), vehicle: other 106 % of control | [7] 107 % of control | [8] 101 % of control

CCC(=O)c1cc(O)ccc1O
inactive: [7] 109 % of control | endpoint: mean survival time, dose: 100.0 mg/kg/injection, schedule: Q01DX001 (ip), vehicle: saline 101 % of control | [8] 109 % of control | endpoint: mean survival time, dose: 200.0 mg/kg/injection, schedule: Q01DX001 (ip), vehicle: saline 101 % of control | endpoint: mean survival time, dose: 200.0 mg/kg/injection, schedule: Q01DX009 (ip), vehicle: other 108 % of control | endpoint: mean survival time, dose: 400.0 mg/kg/injection, schedule: Q01DX001 (ip), vehicle: saline 102 % of control

COCCNC(=S)SCCN(C(C)C)C(C)C
inactive: endpoint: mean survival time, dose: 100.0 mg/kg/injection, schedule: Q01DX001 (sc), vehicle: olive oil, sesame oil, peanut oil 110 % of control

O=C(CNC(=O)Nc1cccc([N+](=O)[O-])c1)N/N=C/c1ccncc1
inactive: endpoint: mean survival time, dose: 50.0 mg/kg/injection, schedule: Q01DX009 (ip), vehicle: saline with Tween-80 89 % of control | [1] 89 % of control | [3] 93 % of control

CC(C)(C)c1ccc(C(=O)C2CC2)cc1
inactive: [2] 98 % of control | [4] 96 % of control

N=C(N)c1ccc(Nc2ccc(C(=N)N)cc2)cc1
inactive: endpoint: mean survival time, dose: 3.0 mg/kg/injection, schedule: Q01DX009 (ip), vehicle: saline 96 % of control and 100 % of control | endpoint: mean survival time, dose: 6.0 mg/kg/injection, schedule: Q01DX009 (ip), vehicle: saline 100 % of control and 101 % of control | endpoint: mean survival time, dose: 12.0 mg/kg/injection, schedule: Q01DX009 (ip), vehicle: saline 93 % of control and 95 % of control | endpoint: mean survival time, dose: 24.0 mg/kg/injection, schedule: Q01DX009 (ip), vehicle: saline 98 % of control

CC(=O)O.CC(=O)O.CC(=O)O.[O]=[U]=[O]
inactive: endpoint: mean survival time, dose: 12.5 mg/kg/injection, schedule: Q01DX009 (ip), vehicle: saline 98 % of control | endpoint: mean survival time, dose: 25.0 mg/kg/injection, schedule: Q01DX009 (ip), vehicle: saline 98 % of control | endpoint: mean survival time, dose: 50.0 mg/kg/injection, schedule: Q01DX009 (ip), vehicle: saline 90 % of control

COc1c(C)c2c(c(OC(C)=O)c1CC(=O)C(C)(O)CCC(=O)O)C(=O)OC2 (centres undefined)
inactive: endpoint: mean survival time, dose: 100.0 mg/kg/injection, schedule: Q04DX002 (ip), vehicle: saline with Tween-80 103 % of control | endpoint: mean survival time, dose: 200.0 mg/kg/injection, schedule: Q04DX002 (ip), vehicle: saline with Tween-80 96 % of control | endpoint: mean survival time, dose: 400.0 mg/kg/injection, schedule: Q04DX002 (ip), vehicle: saline with Tween-80 112 % of control

CC(C)(CI)CI
inactive: [2] 104 % of control | [4] 102 % of control | [6] 96 % of control

O=C1OCCN1S(=O)(=O)c1ccc(Cl)cc1
inactive: [1] 95 % of control | [2] 104 % of control | [3] 93 % of control | [4] 102 % of control | [5] 95 % of control | [6] 98 % of control

NC(=S)N1N=C(c2cccc([N+](=O)[O-])c2)CCC1=O
inactive: [2] 111 % of control | [4] 111 % of control | [6] 107 % of control

S=C(Nc1ccc(Cl)c(Cl)c1)SCc1ccc2c(c1)OCO2
inactive: endpoint: mean survival time, dose: 18.7 mg/kg/injection, schedule: Q01DX009 (ip), vehicle: suspension in saline 107 % of control | endpoint: mean survival time, dose: 37.5 mg/kg/injection, schedule: Q01DX009 (ip), vehicle: suspension in saline 108 % of control | endpoint: mean survival time, dose: 75.0 mg/kg/injection, schedule: Q01DX009 (ip), vehicle: suspension in saline 107 % of control | endpoint: mean survival time, dose: 150.0 mg/kg/injection, schedule: Q01DX009 (ip), vehicle: suspension in saline 111 % of control

CCCCCCCCCN=C(N)CSSCC(N)=NCCCCCCCCC
inactive: endpoint: mean survival time, dose: 12.5 mg/kg/injection, schedule: Q01DX001 (ip), vehicle: Klucel (hydroxypropylcellulose) (HPC) 94 % of control | endpoint: mean survival time, dose: 25.0 mg/kg/injection, schedule: Q01DX001 (ip), vehicle: Klucel (hydroxypropylcellulose) (HPC) 101 % of control

O=c1sc2ccccc2n1CCSCCn1c(=S)sc2ccccc21
inactive: endpoint: mean survival time, dose: 100.0 mg/kg/injection, schedule: Q04DX003 (ip), vehicle: saline 93 % of control | endpoint: mean survival time, dose: 200.0 mg/kg/injection, schedule: Q04DX003 (ip), vehicle: saline 96 % of control | endpoint: mean survival time, dose: 400.0 mg/kg/injection, schedule: Q04DX003 (ip), vehicle: saline 96 % of control

O=C(O)CCCCCCCCC(=O)c1ccccc1
inactive: [2] 97 % of control | [4] 95 % of control | [6] 88 % of control

Nc1c(Cl)c(Cl)cc(Cl)c1Cl
inactive: [2] 97 % of control | [4] 102 % of control | [6] 92 % of control

CCCCCC[Se][Se]CCCCCC
inactive: endpoint: median survival time, dose: 1.56 mg/kg/injection, schedule: Q01DX009 (ip), vehicle: Klucel (hydroxypropylcellulose) (HPC) 98 % of control | endpoint: median survival time, dose: 3.12 mg/kg/injection, schedule: Q01DX009 (ip), vehicle: Klucel (hydroxypropylcellulose) (HPC) 100 % of control | endpoint: median survival time, dose: 6.25 mg/kg/injection, schedule: Q01DX009 (ip), vehicle: Klucel (hydroxypropylcellulose) (HPC) 101 % of control | endpoint: median survival time, dose: 12.5 mg/kg/injection, schedule: Q01DX009 (ip), vehicle: Klucel (hydroxypropylcellulose) (HPC) 97 % of control

C=C(Br)CNC(=O)NCCN1CCOCC1
inactive: [1] 97 % of control | [3] 92 % of control | [5] 89 % of control

CS(=O)(=O)OCCN(CCOS(C)(=O)=O)c1cccc([N+](=O)[O-])c1
inactive: endpoint: mean survival time, dose: 8.0 mg/kg/injection, schedule: Q01DX001 (ip), vehicle: saline 96 % of control | endpoint: mean survival time, dose: 10.0 mg/kg/injection, schedule: Q01DX010 (ip), vehicle: saline 113 % of control | endpoint: mean survival time, dose: 16.0 mg/kg/injection, schedule: Q01DX001 (ip), vehicle: saline 103 % of control | endpoint: mean survival time, dose: 32.0 mg/kg/injection, schedule: Q01DX001 (ip), vehicle: saline 110 % of control | endpoint: mean survival time, dose: 64.0 mg/kg/injection, schedule: Q01DX001 (ip), vehicle: saline 114 % of control and 108 % of control | endpoint: mean survival time, dose: 128.0 mg/kg/injection, schedule: Q01DX001 (ip), vehicle: saline 118 % of control | endpoint: mean survival time, dose: 256.0 mg/kg/injection, schedule: Q01DX001 (ip), vehicle: saline 119 % of control | endpoint: mean survival time, dose: 300.0 mg/kg/injection, schedule: Q01DX010 (ip), vehicle: saline 97 % of control

CCCCCCCCCCCCCC[N+]1(C)CCC[N+](C)(CCCCCCCCCCCCCC)CC1 (centres undefined)
inactive: endpoint: mean survival time, dose: 100.0 mg/kg/injection, schedule: Q04DX003 (ip), vehicle: other 103 % of control | endpoint: mean survival time, dose: 200.0 mg/kg/injection, schedule: Q04DX003 (ip), vehicle: other 88 % of control

Cc1ccc(C(=O)C2OC2c2ccccc2)cc1 (centres undefined)
inactive: endpoint: mean survival time, dose: 100.0 mg/kg/injection, schedule: Q01DX001 (ip), vehicle: saline with Tween-80 94 % of control | endpoint: mean survival time, dose: 200.0 mg/kg/injection, schedule: Q01DX001 (ip), vehicle: saline with Tween-80 100 % of control | endpoint: mean survival time, dose: 400.0 mg/kg/injection, schedule: Q01DX001 (ip), vehicle: saline with Tween-80 94 % of control

CN(C)C(=O)N(CCCl)N=O
active: endpoint: mean survival time, dose: 16.0 mg/kg/injection, schedule: Q01DX001 (ip), vehicle: other 176 % of control | endpoint: mean survival time, dose: 20.0 mg/kg/injection, schedule: Q01DX001 (ip), vehicle: other 306 % of control | endpoint: mean survival time, dose: 32.0 mg/kg/injection, schedule: Q01DX001 (ip), vehicle: other 570 % of control | endpoint: mean survival time, dose: 40.0 mg/kg/injection, schedule: Q01DX001 (ip), vehicle: other 318 % of control

CC(O)C1NC(=S)N(c2ccccc2)C1=O (centres undefined)
inactive: endpoint: mean survival time, dose: 75.0 mg/kg/injection, schedule: Q01DX001 (ip), vehicle: saline 100 % of control | endpoint: mean survival time, dose: 150.0 mg/kg/injection, schedule: Q01DX001 (ip), vehicle: saline 103 % of control | endpoint: mean survival time, dose: 300.0 mg/kg/injection, schedule: Q01DX001 (ip), vehicle: saline 103 % of control
